The text below walks through data of patent US12216122B2, “Compositions and methods relating to detection, inhibition, and imaging of indoleamine 2,3-dioxygenase 1 (IDO1)” (Regeneron Pharmaceuticals, Inc., priority 2019, dated 2025).

“Also recorded” adds a separate entry of the source. Like-named read-outs stand apart in the source and are kept apart here. Bridge positions count the residues as written; N and C are the ends. Square brackets hold non-standard residues; d marks the D form. Triazole bridges read from a SMILES are 1,4-linked. Peptide text beside a SMILES is read from it. * marks the point of attachment. Biotinyl(3aR,4R,6aS) = O=C1N[C@@H]2[C@@H](CS[C@@H]2CCCCC(=O)*)N1; dTrp(1-Me) = Cn1cc(C[C@@H](N)C(=O)O)c2ccccc21; X1 = O=C(CSc1nonc1/C(=N/O)Nc1ccc(F)c(Br)c1)*; Lys(N3) = [N-]=[N+]=NCCCC[C@H](N)C(=O)O; AEEEA = NCCOCCOCCOCC(=O)O; Pra = C#CC[C@H](N)C(=O)O

The nature of data set [1]: Percent organic elution in reverse-phase HPLC (C18) as lipophilicity readout. Type of data set: physicochemical. Conditions: for HPLC % B: Table 12, C18, A=water+0.1% TFA, B=acetonitrile+0.1% TFA. From the text:
The predicted increase in lipophilicity for wyvay (SEQ ID NO:2) was experimentally confirmed by the percent organic (% B) elution during reverse-phase HPLC (RP-HPLC) using a C18 column where solvents A=water+0.1% TFA and B=acetonitrile+0.1% TFA.

Data set [2] concerns the target T1, His-tagged IDO1 human recombinant protein (Homo sapiens, UniProt P14902).
T1 construct: purchased BPS Biosciences 71182
Description: IDO1 ELISA (Affinity Assay): sandwich ELISA, biotinylated ligand immobilized on NEUTRAVIDIN plate. It is filed as binding.

Data set [3] deals with murine IDO1 protein (Mus musculus, UniProt P28776). Description: ELISA against murine IDO1 protein (species cross-reactivity). It is filed as binding. How it is done: Protocol: A black 96-well NEUTRAVIDIN® Coated High Binding Capacity plate (15510, Pierce) was coated with 2 μM biotinylated macrocyclic peptide ligand in TBS (25 mM Tris-HCl, 150 mM NaCl, pH 7.6) for 2 h at room temperature. The plate was aspirated and then washed with Wash Buffer (0.05% (v/v) TWEEN® 20 in PBS, 6×). His-tagged IDO1 human recombinant protein (71182, BPS Biosciences) was serially diluted in Wash Buffer (from 200 to 0 nM) and incubated in the designated microwells for 1 h at room temperature. Microwells were aspirated and subsequently washed with Wash Buffer (11×). To detect the bound IDO1 protein, Alkaline Phosphatase (AP)-conjugated Anti-6×HIS TAG® antibody [HIS-1] (ab49746, Abcam) was prepared at 1:10,000 dilution and added to the microwells for 1 h at room temperature. The plate was aspirated and washed with Wash Buffer (5×). ATTOPHOS® AP Fluorescent Substrate System (S1000, Promega) was employed to develop the microwells. Using an excitation wavelength of 430 nm, fluorescent emission at 535 nm was recorded by Beckman Coulter DTX880 photometer. Titration curves were fit using a four-parameter regression curve fitting program to determine EC50 values.
To test for cross-reactivity with murine IDO1, the human IDO1 targeted macrocyclic peptide ligands were assayed against the murine IDO1 protein by ELISA.

Data set [4] has as its target T1, His-tagged IDO1 human recombinant protein. Description: IDO1 ELISA (Affinity Assay): sandwich ELISA, biotinylated ligand immobilized on NEUTRAVIDIN plate. Conditions: a solution of 200 nM macrocycle was immobilized; read-out: EC50, sandwich ELISA for human IDO1 protein against biotin-PEG3-modified macrocycle. It is filed as binding. On the technique in general: In an ELISA, binding on a coated surface is turned into a signal by an enzyme label.

For data set [5], the system named is HeLa cells. Description: Cellular internalization of fluorescent IDO1 ligands (flow cytometry). Type of data set: cell-based. Conditions: Cy5 or FITC label, flow cytometry. How it is done: Internalization of fluorescently labeled peptides (using Cy5 or FITC) was measured by concentration dependent flow cytometry of unstimulated HeLa cells incubated for one hour with the peptide. […] Internalization was also testing using a cellular inhibition assay, which occurs over 48 hours (rather than the one hour for the flow cytometry assay). Internalized FITC-wyvay (SEQ ID NO:2) at 48 hours was compared to one hour in both unstimulated and stimulated HeLa cells (Table 13). Cell penetration of FITC-wyvay (SEQ ID NO:2) increases with time; more internalized FITC-wyvay (SEQ ID NO:2) can be detected at 48 hours compared to one hour. After one hour, no difference in intracellular staining of FITC-wyvay (SEQ ID NO:2) is observed in unstimulated versus stimulated cells. At 48 hours, there is a slight increase in intracellular FITC-wyvay (SEQ ID NO:2) in stimulated compared to unstimulated cells.
Protocol: HeLa cells were cultured to confluence (˜500,000 cells) in 6-well plates in cell culture medium (DMEM+10% Fetal Bovine Serum (FBS)+1% Penicillin/Streptomycin) or in cell culture medium containing 100 ng/mL IFNγ to stimulate IDO1 expression. The cells were treated with 2 μM or 8 μM macrocyclic IDO1 ligand labeled with either Cy5 or FITC for either 1 hour, 24 hours, or 48 hours as indicated. After treatment, the ligands were aspirated and the cells were washed twice with 1× Phosphate Buffered Saline (PBS). The cells were then harvested by treatment with 0.05% Trypsin-1×EDTA for 5 min at 37° C. Trypsin was quenched by the addition of PBS+2% FBS. The cells in suspension were washed twice in PBS+2% FBS, then resuspended in 500 μL PBS+2% FBS and analyzed for Cy5 or FITC fluorescence using a BD LSR Fortessa X-20 flow cytometer or/and ImageStream X Mark II imaging flow cytometer. Flow Cytometry Standard (fcs) data files were analyzed using FlowJo Software version 10.
On the technique in general: A flow cytometer gives signals particle by particle.

T1 sequence (P14902 whole entry): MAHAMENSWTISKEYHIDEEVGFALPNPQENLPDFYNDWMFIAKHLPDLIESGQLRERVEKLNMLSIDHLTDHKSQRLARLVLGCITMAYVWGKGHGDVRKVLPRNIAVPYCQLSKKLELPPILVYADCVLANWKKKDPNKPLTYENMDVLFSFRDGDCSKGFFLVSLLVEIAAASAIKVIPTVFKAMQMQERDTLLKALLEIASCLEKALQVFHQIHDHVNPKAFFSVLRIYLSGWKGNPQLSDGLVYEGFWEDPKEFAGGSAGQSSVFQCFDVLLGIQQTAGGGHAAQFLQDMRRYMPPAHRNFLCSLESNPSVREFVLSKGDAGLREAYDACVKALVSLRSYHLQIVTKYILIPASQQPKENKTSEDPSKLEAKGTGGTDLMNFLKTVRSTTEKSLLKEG
Sequence of murine IDO1 protein (P28776 whole entry): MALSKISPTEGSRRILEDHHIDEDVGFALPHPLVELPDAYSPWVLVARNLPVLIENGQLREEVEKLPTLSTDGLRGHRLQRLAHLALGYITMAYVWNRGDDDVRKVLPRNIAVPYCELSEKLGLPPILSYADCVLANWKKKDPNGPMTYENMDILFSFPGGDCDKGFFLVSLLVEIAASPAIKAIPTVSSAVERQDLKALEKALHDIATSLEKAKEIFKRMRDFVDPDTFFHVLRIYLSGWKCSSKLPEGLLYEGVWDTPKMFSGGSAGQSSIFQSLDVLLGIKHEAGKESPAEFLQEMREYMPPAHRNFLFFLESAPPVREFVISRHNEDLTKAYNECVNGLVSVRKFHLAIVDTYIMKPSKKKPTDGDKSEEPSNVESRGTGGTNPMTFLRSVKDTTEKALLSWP

With `CC(C)[C@H]1NC(=O)[C@@H](Cc2ccc(O)cc2)NC(=O)[C@@H](Cc2c[nH]c3ccccc23)NC(=O)[C@@H](NC(=O)CNC(=O)CNC(=O)CNC(=O)CNC(=O)CNC(=O)CNC(=O)CNC(=O)CSc2nonc2/C(=N/O)Nc2ccc(F)c(Br)c2)Cc2cn(nn2)CCCC[C@@H](C(N)=O)NC(=O)[C@@H](Cc2ccc(O)cc2)NC(=O)[C@@H](C)NC1=O` [Inh-Gly7-wyvay] (X1-GGGGGGG[Pra][dW][dY][dV][dA][dY][Lys(N3)]-NH2; triazole 8-14), the “% MeCN” value in data set [1] (Table 16) is 43.72%.

The term EC50 denotes the concentration that produces a half-maximal response. In the case of `Cn1cc(C[C@H]2NC(=O)[C@@H](CO)NC(=O)[C@@H](Cc3ccc(O)cc3)NC(=O)[C@@H](CCCNC(=N)N)NC(=O)[C@@H](NC(=O)COCCOCCOCCNC(=O)CCCC[C@H]3SC[C@H]4NC(=O)N[C@H]43)Cc3cn(nn3)CCCC[C@@H](C(N)=O)NC(=O)[C@@H](CCCNC(=N)N)NC2=O)c2ccccc21` [rys(Me-Trp)r, biotin-PEG3-Cy(rys(Me-Trp)r)] ({Biotinyl(3aR,4R,6aS)-AEEEA}-[Pra][dR][dY][dS][dTrp(1-Me)][dR][Lys(N3)]-NH2; triazole 1-7), the EC50 in data set [2] (Table 10, read-out: Human IDO EC50) was determined as 91 ± 22 nM; in data set [3] (Table 10, read-out: Mouse IDO EC50) it was 17 nM; in data set [4] it was 81 nM.

As to `C[C@H]1NC(=O)[C@@H](CCCNC(=N)N)NC(=O)[C@@H](Cc2ccc(O)cc2)NC(=O)[C@@H](Cc2c[nH]c3ccccc23)NC(=O)[C@@H](NC(=O)COCCOCCOCCNC(=O)CCCC[C@H]2SC[C@H]3NC(=O)N[C@H]32)CC2=CC(CCCC[C@@H](C(N)=O)NC(=O)[C@@H](Cc3ccc(O)cc3)NC1=O)N=N2` (some centres unmarked) [wyray, biotin-PEG3-Cy(wyray)], the EC50 in data set [2] (2 μM biotinylated macrocycle immobilized, human IDO1 titrated 200 to 0 nM, read-out: EC50, sandwich ELISA for human IDO1 protein against biotin-PEG3-modified macrocycle) was 25 nM; in data set [2] (Example 9, read-out: Binding affinity (EC50) of prioritized Epitope 1 hits), 25 nM; in data set [2] (Table 12, read-out: EC50) it was 25 nM. The “Selectivity human versus mouse IDO1 by ELISA” value in data set [3] (FIG. 2F) is recorded as “selectivity for the human recombinant protein over mouse is observed”. Also, the “HPLC % B” value in data set [1] is reported as 25.7%.

As for `CC(C)[C@H]1NC(=O)[C@@H](Cc2ccc(O)cc2)NC(=O)[C@@H](Cc2c[nH]c3ccccc23)NC(=O)[C@@H](N)Cc2cn(nn2)CCCC[C@@H](C(N)=O)NC(=O)[C@@H](Cc2ccc(O)cc2)NC(=O)[C@@H](C)NC1=O` [wyvay] (H-[Pra][dW][dY][dV][dA][dY][Lys(N3)]-NH2; triazole 1-7), the EC50 in data set [2] (Table 12, read-out: EC50) came out at 45 nM; in data set [2] (binding analysis of VHL-linked Epitope 2 ligand, read-out: EC50), 45 nM. For the same compound, the “Binding to human IDO1 by ELISA, in words” value in data set [2] (alanine scan, 3-mer/4-mer and substituted variants compared with parent macrocycle) is “modest loss in binding affinity”. Further, the “Internalization of fluorescently labeled peptide, in words” value in data set [5] is given as “dose response cellular uptake; also recorded: Concentration dependent internalization”. In addition, the “HPLC % B” value in data set [1] amounted to 33.4%.
